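Five concentrations, 48 hours, 96-well plates. TGI marks complete inhibition of growth.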
How the values were obtained:
Assay in all cases: DTP human tumour cell line panel, 48 h
IGROV1 ovarian = system: IGROV1 ovarian
SR leukemia = system: SR leukemia
OVCAR-3 ovarian = system: OVCAR-3 ovarian
A549 NSCLC = system: A549 NSCLC
MALME-3M melanoma = system: MALME-3M melanoma
SNB-78 CNS = system: SNB-78 CNS
HCT-116 colon = system: HCT-116 colon
LXFL 529 NSCLC = system: LXFL 529 NSCLC
HS 578T breast = system: HS 578T breast
DU-145 prostate = system: DU-145 prostate

**Q.** With `Cc1cccc(C)c1NC(=O)C1=NC(=S)NC(c2ccccc2)C1c1nc2ccccc2s1` (stereo not drawn) as the compound, how does the TGI (IGROV1 ovarian) read?
**A.** > 100 µM

**Q.** What about the TGI (SR leukemia) of the same compound?
**A.** > 100 µM

**Q.** What about the TGI (OVCAR-3 ovarian) of the same compound?
**A.** > 100 µM

**Q.** And the TGI (A549 NSCLC)?
**A.** > 100 µM

**Q.** And the TGI (MALME-3M melanoma)?
**A.** > 100 µM

**Q.** What about the TGI (SNB-78 CNS) of the same compound?
**A.** > 100 µM

**Q.** And the TGI (HCT-116 colon)?
**A.** > 100 µM

**Q.** And the TGI (LXFL 529 NSCLC)?
**A.** > 100 µM

**Q.** What does the source list for `Cc1cccc(C2SCc3nc4ccccc4n32)c1` (stereo not drawn)?
**A.** TGI (IGROV1 ovarian): > 100 µM; TGI (SR leukemia): 64.2 µM; TGI (OVCAR-3 ovarian): 39.1 µM; TGI (A549 NSCLC): > 100 µM; TGI (MALME-3M melanoma): 49.6 µM; TGI (SNB-78 CNS): 99.4 µM; TGI (HCT-116 colon): 56.7 µM; TGI (LXFL 529 NSCLC): > 100 µM

**Q.** How did the TGI (IGROV1 ovarian) turn out when `CCOC(=O)Oc1cc2c(c(OC)c1OC)-c1ccc(OC)c(=O)cc1C(NC(C)=O)CC2` (stereo not drawn) was run?
**A.** > 69.6 µM

**Q.** What about the TGI (OVCAR-3 ovarian) of the same compound?
**A.** 0.135 µM

**Q.** And the TGI (A549 NSCLC)?
**A.** > 100 µM

**Q.** What about the TGI (MALME-3M melanoma) of the same compound?
**A.** > 100 µM

**Q.** What about the TGI (HS 578T breast) of the same compound?
**A.** > 100 µM

**Q.** What about the TGI (SNB-78 CNS) of the same compound?
**A.** > 100 µM

**Q.** And the TGI (HCT-116 colon)?
**A.** 1.85 µM

**Q.** What about the TGI (LXFL 529 NSCLC) of the same compound?
**A.** > 100 µM

**Q.** Which TGI (IGROV1 ovarian) does the source give for `Nc1ccc(C(=O)N/C(=C\c2cccc([N+](=O)[O-])c2)c2nc3[nH]c(=S)[nH]c(=O)c3[nH]2)cc1` here?
**A.** > 100 µM

**Q.** And the TGI (DU-145 prostate)?
**A.** > 100 µM

**Q.** And the TGI (SR leukemia)?
**A.** > 100 µM

**Q.** What about the TGI (OVCAR-3 ovarian) of the same compound?
**A.** > 100 µM

**Q.** What about the TGI (A549 NSCLC) of the same compound?
**A.** > 100 µM

**Q.** What about the TGI (MALME-3M melanoma) of the same compound?
**A.** > 100 µM

**Q.** And the TGI (HS 578T breast)?
**A.** > 91.2 µM

**Q.** And the TGI (SNB-78 CNS)?
**A.** > 100 µM

**Q.** And the TGI (HCT-116 colon)?
**A.** > 100 µM

**Q.** What about the TGI (LXFL 529 NSCLC) of the same compound?
**A.** > 100 µM

**Q.** `O=C(/C=C/c1ccccc1F)c1ccc(Cl)c(Cl)c1` was tested. Which TGI (IGROV1 ovarian) did it give?
**A.** > 72.6 µM

**Q.** What about the TGI (SR leukemia) of the same compound?
**A.** > 100 µM

**Q.** What about the TGI (OVCAR-3 ovarian) of the same compound?
**A.** > 71.6 µM

**Q.** And the TGI (A549 NSCLC)?
**A.** > 100 µM

**Q.** And the TGI (MALME-3M melanoma)?
**A.** > 100 µM

**Q.** What about the TGI (SNB-78 CNS) of the same compound?
**A.** > 100 µM

**Q.** What about the TGI (HCT-116 colon) of the same compound?
**A.** 32.1 µM

**Q.** And the TGI (LXFL 529 NSCLC)?
**A.** 35.6 µM

**Q.** Which TGI (IGROV1 ovarian) does the source give for `CC1=C(C(=O)Nc2ccccc2)C(c2cccc3ccccc23)C(C(=O)Nc2ccccc2)=C(C)N1` here?
**A.** 56.9 µM

**Q.** And the TGI (SR leukemia)?
**A.** 22.6 µM

**Q.** What about the TGI (OVCAR-3 ovarian) of the same compound?
**A.** 26.4 µM

**Q.** What about the TGI (A549 NSCLC) of the same compound?
**A.** 82 µM

**Q.** What about the TGI (MALME-3M melanoma) of the same compound?
**A.** 37.4 µM

**Q.** What about the TGI (SNB-78 CNS) of the same compound?
**A.** 94.3 µM

**Q.** And the TGI (HCT-116 colon)?
**A.** 28.7 µM

**Q.** And the TGI (LXFL 529 NSCLC)?
**A.** 34.4 µM

**Q.** With `Cc1ccc(S(=O)(=O)SC(C)(C)C)cc1` as the compound, how does the TGI (IGROV1 ovarian) read?
**A.** 37.3 µM

**Q.** And the TGI (DU-145 prostate)?
**A.** > 100 µM

**Q.** What about the TGI (SR leukemia) of the same compound?
**A.** > 100 µM

**Q.** And the TGI (OVCAR-3 ovarian)?
**A.** 39.3 µM

**Q.** What about the TGI (A549 NSCLC) of the same compound?
**A.** > 100 µM

**Q.** What about the TGI (MALME-3M melanoma) of the same compound?
**A.** > 62 µM

**Q.** And the TGI (HS 578T breast)?
**A.** > 100 µM

**Q.** What about the TGI (SNB-78 CNS) of the same compound?
**A.** > 100 µM

**Q.** What about the TGI (HCT-116 colon) of the same compound?
**A.** 31.8 µM

**Q.** And the TGI (LXFL 529 NSCLC)?
**A.** > 100 µM

**Q.** Which results are given for `O=C1N2Cc3c4ccc5c3CN3C(=O)N6Cc7c(ccc(c7CN1C6(c1ccccc1)C23c1ccccc1)OCCOCCNCCOCCO4)OCCOCCNCCOCCO5` (stereo not drawn)?
**A.** TGI (IGROV1 ovarian): > 100 µM; TGI (SR leukemia): > 100 µM; TGI (OVCAR-3 ovarian): > 100 µM; TGI (A549 NSCLC): > 100 µM; TGI (MALME-3M melanoma): 59.6 µM; TGI (SNB-78 CNS): > 100 µM; TGI (HCT-116 colon): > 100 µM; TGI (LXFL 529 NSCLC): 53.7 µM

From PubChem BioAssay (NCI)
